According to patent US7348425B2, “Inhibitors of HCV replication” (Bristol-Myers Squibb Company, priority 2004, dated 2008):
Where two headings read alike, the source gives them in different places.

What was measured:
HCV replicon = HCV replicon luciferase assay; assay type: cell-based, Hepatitis C virus; conditions: Hepatitis C virus
Procedure: To prepare plates, HCV replicon cells, with or without a Renilla luciferase reporter gene, were trypsinized and placed into each well of a 96-well plate with titrated test compounds added in columns 3 through 12; columns 1 and 2 contained a control compound (HCV protease inhibitor), and the bottom row contained cells without compound. The plates were then placed in a CO2 incubator at 37 degrees C.
Assays. Subsequent to addition of the test compounds described above (FRET Assay Preparation), at various times the plate was removed and Alamar blue solution (Trek Diagnostics, #00-100) was added per well as a measure of cellular toxicity. After reading in a Cytoflour 4000 instrument (PE Biosystems), plates were rinsed with PBS and then used for FRET assay by the addition of 30 ul of the FRET peptide assay reagent described above (FRET Assay Preparation) per well. The plate was then placed into the Cytoflour 4000 instrument which had been set to 340 excite/490 emission, automatic mode for 20 cycles and the plate read in a kinetic mode. Typically, the signal to noise using an endpoint analysis after the reads was at least three-fold. Alternatively, after Alamar blue reading, plates were rinsed with PBS, 50 ul of DMEM (high glucose) without phenol red was added and plates were then used for luciferase assay using the Promega Dual-Glo Luciferase Assay System.
Compound analysis was determined by quantification of the relative HCV replicon inhibition and the relative cytotoxicity values. To calculate cytoxicity values, the average Alamar Blue fluorescence signals from the control wells were set as 100% non-toxic. The individual signals in each of the compound test wells were then divided by the average control signal and multiplied by 100% to determine […]. To calculate the HCV replicon inhibition values, an average background value was obtained from the two wells containing the highest amount of HCV protease inhibitor at the end of the assay period. These numbers were similar to those obtained from naïve Huh-7 cells.
The background numbers were then subtracted from the average signal obtained from the control wells and this number was used as 100% activity. The individual signals in each of the compound test wells were then divided by the averaged control values after background subtraction and multiplied by 100% to determine percent activity. EC50 values for a protease inhibitor titration were calculated as the concentration which caused a 50% reduction in FRET or luciferase activity. The two numbers generated for the compound plate, percent cytoxicity and percent activity were used to determine compounds of interest for further analysis.

[1] = target: T1, HCV NS5B RdRp genotype 1b (Hepatitis C virus genotype 1b, UniProt Q9WMX2); test: Standard HCV NS5B RdRp enzyme assay; assay type: biochemical; conditions: standard method
T1 construct: The protein was expressed with an 18 amino acid C-terminal truncation to enhance the solubility; made in house; host or cells: E. coli BL21 (DE3), pET21a
T1 sequence (Q9WMX2 2420-2992): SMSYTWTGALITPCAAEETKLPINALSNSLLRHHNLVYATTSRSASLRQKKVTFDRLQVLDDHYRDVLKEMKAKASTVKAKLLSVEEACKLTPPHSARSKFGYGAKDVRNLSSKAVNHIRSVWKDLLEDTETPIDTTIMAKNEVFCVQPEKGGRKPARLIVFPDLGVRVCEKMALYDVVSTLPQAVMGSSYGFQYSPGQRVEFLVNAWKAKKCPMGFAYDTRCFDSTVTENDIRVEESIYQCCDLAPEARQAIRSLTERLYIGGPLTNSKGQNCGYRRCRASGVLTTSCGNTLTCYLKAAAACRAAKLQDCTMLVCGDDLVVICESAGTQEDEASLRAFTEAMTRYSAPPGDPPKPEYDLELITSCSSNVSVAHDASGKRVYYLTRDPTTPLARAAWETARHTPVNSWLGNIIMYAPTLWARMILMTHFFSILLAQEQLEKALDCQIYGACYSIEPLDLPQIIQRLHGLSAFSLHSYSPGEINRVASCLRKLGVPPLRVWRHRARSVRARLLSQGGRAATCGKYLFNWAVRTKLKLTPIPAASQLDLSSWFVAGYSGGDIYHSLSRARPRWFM
Procedure: HCVNS5B RdRp cloning, expression, and purification. The cDNA encoding the NS5B protein of HCV, genotype 1b, was cloned into the pET21a expression vector. The protein was expressed with an 18 amino acid C-terminal truncation to enhance the solubility. The E. coli competent cell line BL21 (DE3) was used for expression of the protein. Cultures were grown at 37° C. for ˜4 hours until the cultures reached an optical density of 2.0 at 600 nm. The cultures were cooled to 20° C. and induced with 1 mM IPTG. Fresh ampicillin was added to a final concentration of 50 μg/ml and the cells were grown overnight at 20° C.
Cell pellets (3 L) were lysed for purification to yield 15-24 mgs of purified NS5B. The lysis buffer consisted of 20 mM Tris-HCl, pH 7.4, 500 mM NaCl, 0.5% triton X-100, 1 mM DTT, 1 mM EDTA, 20% glycerol, 0.5 mg/ml lysozyme, 10 mM MgCl2, 15 ug/ml deoxyribonuclease I, and Complete TM protease inhibitor tablets (Roche). After addition of the lysis buffer, frozen cell pellets were resuspended using a tissue homogenizer. To reduce the viscosity of the sample, aliquots of the lysate were sonicated on ice using a microtip attached to a Branson sonicator. The sonicated lysate was centrifuged at 100,000×g for 1 hr at 4° C. and filtered through a 0.2 μm filter unit (Corning).
The protein was purified using three sequential chromatography steps: Heparin sepharose CL-6B, polyU sepharose 4B, and Hitrap SP sepharose (Pharmacia). The chromatography buffers were identical to the lysis buffer but contained no lysozyme, deoxyribonuclease I, MgCl2 or protease inhibitor and the NaCl concentration of the buffer was adjusted according to the requirements for charging the protein onto the column. Each column was eluted with a NaCl gradient which varied in length from 5-50 column volumes depending on the column type. After the final chromatography step, the resulting purity of the enzyme is >90% based on SDS-PAGE analysis. The enzyme was aliquoted and stored at −80° C.
Standard HCV NS5B RdRp enzyme assay. HCV RdRp genotype Ib assays were run in a final volume of 60 μl in 96 well plates (Costar 3912). The assay buffer is composed of 20 mM Hepes, pH 7.5, 2.5 mM KCl, 2.5 mM MgCl2, 1 mM DTT, 1.6 U RNAse inhibitor (Promega N2515), 0.1 mg/ml BSA (Promega R3961), and 2% glycerol. All compounds were serially diluted (3-fold) in DMSO and diluted further in water such that the final concentration of DMSO in the assay was 2%. HCV RdRp genotype 1b enzyme was used at a final concentration of 28 nM. A polyA template was used at 6 nM, and a biotinylated oligo-dT12 primer was used at 180 nM final concentration. Template was obtained commercially (Amersham 27-4110). Biotinylated primer was prepared by Sigma Genosys. ^3H-UTP was used at 0.6 μCi (0.29 μM total UTP). Reactions were initiated by the addition of enzyme, incubated at 30° C. for 60 min, and stopped by adding 25 μl of 50 mM EDTA containing SPA beads (4 μg/μl, Amersham RPNQ 0007). Plates were read on a Packard Top Count NXT after >1 hr incubation at room temperature.
The IC50 values for compounds were determined using seven different [I]. IC50 values were calculated from the inhibition using the formula y=A+((B−A)/(1+((C/x)^D))). FRET Assay Preparation. To perform the HCV FRET screening assay, 96-well cell culture plates were used. The FRET peptide (Anaspec, Inc.) (Taliani et al., Anal. Biochem. 240:60-67 (1996), hereby incorporated by reference in its entirety) contains a fluorescence donor, EDANS, near one end of the peptide and an acceptor, DABCYL, near the other end. The fluorescence of the peptide is quenched by […] resonance energy transfer (RET) between the donor and the acceptor, but as the NS3 protease cleaves the peptide the products are released from RET quenching and the fluorescence of the donor becomes apparent. […]

[2] = luciferase method, read-out: EC50

Row | Compound | EC50 (HCV replicon; [2]) [nM] | IC50 [1] [nM] | EC50 (HCV replicon) [nM]
1 | O=C(O)c1ccc2c(C3CCCCC3)c3n(c2c1)CC=Cc1cc(OCc2ccccc2)ccc1-3 | 100 to 1000 | > 1000 | 
2 | O=C(O)c1ccc2c(C3CCCCC3)c3n(c2c1)CC=Cc1ncccc1-3 | 1000 to 10000 | > 1000 | 
3 | O=C(O)c1ccc2c(C3CCCCC3)c3n(c2c1)CCCc1occc1-3 | 1000 to 10000 | > 1000 | 
4 | CC(C)(C)OC(=O)N1/C=C\CCn2c(c(C3CCCCC3)c3ccc(C(=O)O)cc32)-c2ccccc21 | 1000 to 10000 | > 1000 | 
5 | O=C(O)c1ccc2c(C3CCCCC3)c3n(c2c1)CCCCNc1ccccc1-3 | 100 to 1000 | > 1000 | 
6 | O=C(O)c1ccc2c(C3CCCCC3)c3n(c2c1)CCCc1cc(O)ccc1-3 | 100 to 1000 | 100 to 1000 | 
7 | O=C(O)c1ccc2c(C3CCCCC3)c3n(c2c1)C(O)c1ccccc1-3 (stereo not drawn) | > 10000 | > 1000 | 
8 | COC1c2ccccc2-c2c(C3CCCCC3)c3ccc(C(=O)O)cc3n21 (stereo not drawn) | > 10000 | > 1000 | 
9 | O=C(O)c1ccc2c(C3CCCCC3)c3c4ccccc4cc(C(=O)O)n3c2c1 | > 10000 | > 1000 | 
10 | O=C(O)C1=Cc2ccccc2-c2c(C3CCCCC3)c3ccc(C(=O)O)cc3n2C1 | > 10000 | 100 to 1000 | 
11 | CN(C)S(=O)(=O)NC(=O)c1ccc2c(C3CCCCC3)c3n(c2c1)CCCc1ccccc1-3 | 100 to 1000 | 100 to 1000 | 
12 | Cn1cnc(S(=O)(=O)NC(=O)c2ccc3c(C4CCCCC4)c4n(c3c2)CCCc2ccccc2-4)c1 | 1000 to 10000 | > 1000 | 
13 | O=C1Cn2c(c(C3CCCCC3)c3ccc(C(=O)NS(=O)(=O)C4CC4)cc32)-c2ccccc2N1 | 100 to 1000 | 100 to 1000 | 
14 | CCOC(=O)/C=C/c1ccc(NC(=O)C2(NC(=O)c3ccc4c(C5CCCCC5)c5n(c4c3)CCCc3ncccc3-5)CCCC2)cc1 | < 100 | > 1000 | 
15 | O=C(O)/C=C/c1ccc(NC(=O)C2(NC(=O)c3ccc4c(C5CCCCC5)c5n(c4c3)CCCc3ncccc3-5)CCCC2)cc1 | < 100 | 100 to 1000 | 
16 | COC(=O)/C=C/c1ccc(NC(=O)C2(NC(=O)c3ccc4c(C5CCCCC5)c5n(c4c3)CCOc3cccnc3-5)CCCC2)cc1 | 100 to 1000 | > 1000 | 
17 | O=C(O)/C=C/c1ccc(NC(=O)C2(NC(=O)c3ccc4c(C5CCCCC5)c5n(c4c3)CCOc3cccnc3-5)CCCC2)cc1 | < 100 | 100 to 1000 | 

Row | Compound | EC50 (HCV replicon; [2]) [nM] | IC50 [1] [nM] | EC50 (HCV replicon) [nM]
18 | CC(C)(C)OC(=O)/C=C/c1ccc(NC(=O)C2(NC(=O)c3ccc4c(C5CCCCC5)c5n(c4c3)CC(=O)Nc3cccnc3-5)CCCC2)cc1 | 100 to 1000 | > 1000 | 
19 | O=C(O)/C=C/c1ccc(NC(=O)C2(NC(=O)c3ccc4c(C5CCCCC5)c5n(c4c3)CCOc3ccccc3-5)CCCC2)cc1 | < 100 | 100 to 1000 | 
20 | O=C(O)/C=C/c1ccc(NC(=O)C2(NC(=O)c3ccc4c(C5CCCCC5)c5n(c4c3)CC=Cc3ccccc3-5)CCCC2)cc1 | < 100 | 100 to 1000 | 
21 | O=C(O)/C=C/c1ccc(NC(=O)C2(NC(=O)c3ccc4c(C5CCCCC5)c5n(c4c3)CCCCNc3ccccc3-5)CCCC2)cc1 | < 100 | > 1000 | 
22 | O=C(O)/C=C/c1ccc(NC(=O)C2(NC(=O)c3ccc4c(C5CCCCC5)c5n(c4c3)CC(=O)Nc3cccnc3-5)CCCC2)cc1 | < 100 | 100 to 1000 | 
23 | NC(=O)C1Cc2ccccc2-c2c(C3CCCCC3)c3ccc(C(=O)O)cc3n2C1 (stereo not drawn) | 100 to 1000 | 100 to 1000 | 
24 | CNC(=O)C1Cc2ccccc2-c2c(C3CCCCC3)c3ccc(C(=O)O)cc3n2C1 (stereo not drawn) | 100 to 1000 | 100 to 1000 | 
25 | CN(C)C(=O)C1Cc2ccccc2-c2c(C3CCCCC3)c3ccc(C(=O)O)cc3n2C1 (stereo not drawn) | 100 to 1000 | 100 to 1000 | 
26 | O=C(O)c1ccc2c(C3CCCCC3)c3n(c2c1)CC(C(=O)NCCO)Cc1ccccc1-3 (stereo not drawn) | 100 to 1000 | 100 to 1000 | 
27 | CN(C)CCNC(=O)C1Cc2ccccc2-c2c(C3CCCCC3)c3ccc(C(=O)O)cc3n2C1 (stereo not drawn) | 100 to 1000 | 100 to 1000 | 
28 | CN(C)S(=O)(=O)NC(=O)c1ccc2c(C3CCCCC3)c3n(c2c1)CC(C(=O)N1CCN(c2ccncc2)CC1)Cc1ccccc1-3 (stereo not drawn) | < 100 | 100 to 1000 | 
29 | CN(C)S(=O)(=O)NC(=O)c1ccc2c(C3CCCCC3)c3n(c2c1)CC(C(=O)N1CCOCC1)Cc1ccccc1-3 (stereo not drawn) | < 100 | 100 to 1000 | 
30 | CN1CCN(C(=O)C2Cc3ccccc3-c3c(C4CCCCC4)c4ccc(C(=O)NS(=O)(=O)N(C)C)cc4n3C2)CC1 (stereo not drawn) | 100 to 1000 | 100 to 1000 | 
31 | CN(C)S(=O)(=O)NC(=O)c1ccc2c(C3CCCCC3)c3n(c2c1)CC(C(=O)N1CCC(N2CCCC2)CC1)Cc1ccccc1-3 (stereo not drawn) | < 100 | 100 to 1000 | 
32 | CN(C)S(=O)(=O)NC(=O)c1ccc2c(C3CCCCC3)c3n(c2c1)CC(C(=O)N1CCCC(O)C1)Cc1ccccc1-3 (stereo not drawn) | 100 to 1000 | 100 to 1000 | 
33 | CN(C)S(=O)(=O)NC(=O)c1ccc2c(C3CCCCC3)c3n(c2c1)CC(C(=O)N1CCOCC1)=Cc1ccccc1-3 |  | 100 to 1000 | < 100
